Test results published in patent US6274568A, “Compounds for altering cell surface sialic acids and methods of use therefor” (priority 1999, dated 2001).

Assays:
MAG-Fc chimera = assay: MAG-Fc binding to precursor-treated NG108-15 cells by flow cytometry; format: cell-based
Method: Flow cytometry was used to test binding of a soluble MAG-Fc chimera to precursor-treated and control NG108-15 cells. A chimeric protein consisting of the entire extracellular domain of MAG fused via a three amino acid bridge (TGK) to the human Fc domain was produced using the "pIgPlus" vector (Novagen, Madison, Wis.). A PCR fragment coding for the extracellular domain of MAG was prepared using MAG in pCDM8 as template (Yang et al., 1996a), the T7 5' primer […] (SEQ ID NO:1) and […] (SEQ ID NO:2) as the 3' primer. The fragment was cut with BamHI and HindIII and directionally cloned into the pIgPlus vector. The resulting construct was sequenced to confirm its identity, transfected into COS cells, and the resulting MAG-Fc chimera was purified from the culture medium using Protein G affinity chromatography.
For MAG binding studies, NG108-15 cells were cultured in the presence of sialic acid precursors for the indicated times, then were released from culture dishes using hypertonic Ca^2+ /Mg^2+ -free phosphate-buffered saline (Yang et al., Proc. Natl. Acad. Sci. USA., 93:814, 1996) and resuspended (at […]) in 25 mM Hepes-buffered Hanks balanced salt solution (Bashor, Methods Enzymol., 58:119, 1979) containing 5 mg/ml bovine serum albumin. MAG-Fc (6 μg) was added to 100 μl of the same buffer containing 6 μg fluorescein isothiocyanate-labeled goat anti-human Fc (Jackson Immunoresearch, West Grove, Pa.) and incubated on ice for 1 h 45 min with frequent mixing. Cell suspension (100 μl containing 50,000 cells) was added to the premixed antibody solution and the mixture incubated on ice for 45 min. The cells were then centrifuged for 4 sec at 16,000×g and washed three times by resuspension in 200 μl of buffer with bovine serum albumin and centrifugation. The resulting cell pellet was resuspended in 100 μl buffer with bovine serum albumin and flow cytometry was performed on an Epics Profile II cytometer (Coulter Corp, Hialeah, Fla.).
NG108-15 cells, a mouse neuroblastoma/rat glioma hybrid, display many qualities of cholinergic neurons, including neurite outgrowth, synthesis, storage and release of acetylcholine, and functional synapse formation with muscle cells in vitro. Neurite outgrowth from NG108-15 cells is inhibited by MAG (McKerracher et al., Neuron, 13:805, 1994), an interaction which is reversed by pretreatment of the cells with neuraminidase (Schnaar et al., Ann. N.Y. Acad. Sci., 845:92, 1998). […] Binding was quantified by flow cytometry. […]

NG108-15 cells = assay: O-acetylation state of NeuGc in ManNGcPA-treated NG108-15 cells, thin layer chromatography; format: cell-based, mouse neuroblastoma/rat glioma hybrid; settings: 1 mM, 48 h
Method: O-Acetylated sialic acids from bovine submaxillary mucin served as standards. […] A portion of the organic/aqueous soluble pool (predominantly free sialic acids) was subjected to silicic acid thin layer chromatography using propanol-water (1:1) as developing solvent and resorcinol reagent for detection. Sialic acids released from bovine submaxillary mucin, which contain primarily O-acetylated forms of NeuAc (as well as NeuAc, NeuGc, and O-acetylated forms of NeuGc) were prepared and used as positive controls. Lane 1, bovine submaxillary mucin sialic acids; Lane 2, mucin sialic acids pretreated with concentrated ammonium hydroxide for 2 h at ambient temperature to selectively deplete O-acetyl groups; Lane 3, NeuAc standard; Lane 4, NeuGc standard; Lane 5, extract from ManNGcPA-treated NG108-15 cells. O-Acetylated forms of NeuGc, which are reported to migrate 60-100% farther than the parent NeuGc in this system, appear to be absent from the cell extract.

## CC(=O)OCC(=O)N[C@@H]1C(OC(C)=O)O[C@H](COC(C)=O)[C@@H](OC(C)=O)[C@@H]1OC(C)=O (stereo partly shown) [ManNGcPA, N-glycolylmannosamine pentaacetate]
MAG-Fc chimera; 0.25 mM or 1 mM, 96 h
  inhibition of MAG-Fc binding: ≈ 70%
MAG-Fc chimera; 1 mM, 144 h, compared to control cells
  inhibition of specific binding of MAG-Fc: 95%
NG108-15 cells
  O-acetylated NeuGc in the precursor pool: no significant proportion of O-acetylated NeuGc
  de-O-acetylation prior to or coordinate with metabolism to sialic acid: apparently complete de-O-acetylation
